Reference: patent US9867795B2, “Nitrated lipids and methods of making and using thereof” (The UAB Research Foundation, priority 2004, dated 2018)

What was measured:
Assay in all cases: CV-1 Gal4 ligand binding domain luciferase reporter assay
Assay type in all cases: cell-based
Settings in all cases: LNO2 1 μM; CV-1 cells
[1] = target: T1, retinoic X receptor α (RXRα) (Homo sapiens, UniProt P19793)
T1 construct: expressed in transfected cells; host or cells: CV-1 cells
T1 sequence (P19793 227-458 limits assumed): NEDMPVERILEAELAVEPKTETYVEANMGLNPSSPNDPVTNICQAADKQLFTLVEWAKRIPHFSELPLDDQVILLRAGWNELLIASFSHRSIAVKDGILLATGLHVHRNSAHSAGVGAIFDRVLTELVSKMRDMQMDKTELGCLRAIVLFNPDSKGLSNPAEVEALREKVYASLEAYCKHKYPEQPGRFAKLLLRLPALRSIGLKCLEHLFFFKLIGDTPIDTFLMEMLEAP
Description: (§1) Cell Transient Transfection Assay. CV-1 cells from ATCC (Manassas, Va.) were grown to ˜85% confluence in DMEM/F12 supplemented with 10% FBS, 1% penicillin-streptomycin. Then, cells were transiently co-transfected with a plasmid containing the luciferase gene under regulation by four Gal4 DNA binding elements (UASG×4 TK-Luciferase, a gift from Dr. Ronald M. Evans), in concert with plasmids containing the ligand binding domain for the different nuclear receptors fused to the Gal4 DNA binding domain. For assessing full-length PPAR receptors, CV-1 cells were transiently co-transfected with a plasmid containing the luciferase gene under the control of three tandem PPAR response elements (PPRE) (PPRE×3 TK-Luciferase) and hPPARγ, hPPARα or hPPARδ expression plasmids, respectively. In all cases, fluorescence protein (GFP) expression plasmid was co-transfected as the control for the transfection efficiency. Twenty-four hours after the transfection, cells were cultured for another 24 hours in Optium-MEM (Invitrogen, Carlsbad, Calif.). Then, cells were treated with different compounds as indicated in figures for 24 hours in Optium-MEM. Reporter luciferase assay kits from Promega (Madison, Wis.) were used to measure the luciferase activity according to the manufacturer's instructions with a luminometer (Victor II, Perkin-Elmer). Luciferase activity was normalized by GFP units. Each condition was performed at least in triplicates in each experiment.

[2] = target: T2, progesterone receptor (PR) (Homo sapiens, UniProt P06401)
T2 construct: expressed in transfected cells; host or cells: CV-1 cells
T2 sequence (P06401 679-913 limits assumed): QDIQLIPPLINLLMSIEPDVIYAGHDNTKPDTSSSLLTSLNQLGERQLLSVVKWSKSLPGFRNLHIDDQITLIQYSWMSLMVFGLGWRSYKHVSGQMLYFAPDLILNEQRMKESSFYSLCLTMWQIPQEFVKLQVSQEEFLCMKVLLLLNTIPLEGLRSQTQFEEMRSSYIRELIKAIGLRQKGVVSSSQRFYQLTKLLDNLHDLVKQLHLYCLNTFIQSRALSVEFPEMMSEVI
Description: as §1

[3] = target: T3, mineralocorticoid receptor (MR) (Homo sapiens, UniProt P08235)
T3 construct: expressed in transfected cells; host or cells: CV-1 cells
T3 sequence (P08235 726-964 limits assumed): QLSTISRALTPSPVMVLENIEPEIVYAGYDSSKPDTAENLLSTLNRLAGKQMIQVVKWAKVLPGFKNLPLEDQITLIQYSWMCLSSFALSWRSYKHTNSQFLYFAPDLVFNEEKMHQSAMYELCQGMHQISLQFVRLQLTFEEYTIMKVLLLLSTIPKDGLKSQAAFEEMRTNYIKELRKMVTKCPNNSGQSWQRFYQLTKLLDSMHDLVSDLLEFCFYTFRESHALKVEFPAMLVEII
Description: as §1

10-nitro-9,12-octadecadienoic acid and 12-nitro-9,12-octadecadienoic acid [LNO2]
no impact: RXRα receptor activation [1] | PR receptor activation [2] | MR receptor activation [3]
